Results published in patent publication US10702527B2, “Combination therapy of transcription inhibitors and kinase inhibitors” (Dana-Farber Cancer Institute, Inc., priority 2015, dated 2020).

What was measured:
[1] = system: RT112 bladder carcinoma cells (FGFR3-dependent); test: Colony formation assay in RT112 cells; format: cell-based, human; conditions: one week, 24-well plate (FIG. 35)
Description: Media (and drug) were replaced weekly.

[2] = system: EGFR-T790M-L858R; p53-R172H lung tumors; format: in vivo; conditions: TLP mice
Description: Mice (both male and female) bred to contain conditional EGFR-T790M-L858R lox-stop-lox (LSL) allele and the p53-dominant negative R172H LSL allele to a final genotype of EGFR-T790M-L858R^LSL/−; p53-R172H^LSL/− maintained on a mixed background, were induced at 6 weeks of age with Adenovirus-Cre recombinase by intranasal administration^45 to allow for mediated recombination of lox-stop-lox modified mutant-EGFR and p53 alleles. […] Mice were imaged using a 7 Tesla BioSpec (Bruker Biospin) optimized for image requisition of pulmonary parenchyma and vessels in mice. Animals were anesthetized with 2% isoflurane IsoFlo; Abbott) in 100% oxygen via a nose cone. Respiratory and cardiac gating was applied to minimize motion artifacts during imaging. 24 slices (1 mm) were collected. Tumor volume per animal was quantified manually, based on a minimum of eight consecutive axial image sequences, using the 3D Slicer. […] Investigators were not blinded to group allocation. Mice were imaged biweekly by MRI until end-stage disease to determine tumor volume. Mice weights and signs of toxicity were monitored daily during the course of treatment. End-stage disease was reached when animals acquired clinical symptoms secondary to their lung tumors, in accordance with Dana Farber Cancer Institute Animal Care and Use Committee regulations.

Row | Structure (SMILES) | colony formation, transcription inhibitor alone or in combination with BGJ398 [1] | time to end-stage disease [2] | tumor response by MRI at two weeks ([2]; WZ4002 50 mg/kg QD oral gavage) | tumor response by MRI at four weeks ([2]; WZ4002 50 mg/kg QD oral gavage, THZ1 10 mg/kg BID i.p.)
1 | C[C@H](CCC(=O)O)[C@H]1CC[C@H]2[C@@H]3CC[C@@H]4C[C@H](O)CC[C@]4(C)[C@H]3C[C@H](O)[C@]12C [DCA] | modest results, even in combination |  |  | 
2 | C=CC(=O)Nc1cccc(Nc2cc(N3CCCCC3CCO)nc3c(CC)cnn23)c1 (centres unmarked) [E9] | works as well as THZ1 |  |  | 
3 | C=CC(=O)Nc1cccc(Oc2nc(Nc3ccc(N4CCN(C)CC4)cc3OC)ncc2Cl)c1 [WZ4002] |  | end-stage disease by five weeks | initial response | rapidly developed resistance and rebounded
